22 compounds from patent US20180250280A1 (BAYER PHARMA AKTIENGESELLSCHAFT, priority 2015, published 2018) can be followed below.

SMILES strings stand for the structures.

As a reminder, the IC50 is the concentration needed to halve the response being measured. Higher therefore signals a need for much substance.

One experiment concerns the target T1, human factor XIa (Homo sapiens, UniProt P03951).
T1 construct: purchased Kordia
Description: Measurement of FXIa inhibition (fluorogenic peptide substrate, AMC cleavage). Type of experiment: biochemical. The settings on record: factor XIa from Kordia 0.45 nM; substrate Boc-Glu(OBzl)-Ala-Arg-AMC 10 μM; 30 min at 22° C.; in some cases averages from multiple determinations.

For the next experiment, the target named is T2, human plasma kallikrein (Homo sapiens, UniProt P03952).
T2 construct: purchased Kordia
T2 sequence (P03952 391-638 limits assumed): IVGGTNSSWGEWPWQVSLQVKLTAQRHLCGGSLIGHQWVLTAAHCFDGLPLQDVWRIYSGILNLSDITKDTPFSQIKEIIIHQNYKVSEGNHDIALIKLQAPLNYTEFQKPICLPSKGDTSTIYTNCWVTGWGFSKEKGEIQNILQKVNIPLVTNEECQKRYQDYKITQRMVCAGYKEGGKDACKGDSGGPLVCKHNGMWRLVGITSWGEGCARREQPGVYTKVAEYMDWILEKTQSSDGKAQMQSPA
T2 sequence (P03952 20-390 partner limits assumed): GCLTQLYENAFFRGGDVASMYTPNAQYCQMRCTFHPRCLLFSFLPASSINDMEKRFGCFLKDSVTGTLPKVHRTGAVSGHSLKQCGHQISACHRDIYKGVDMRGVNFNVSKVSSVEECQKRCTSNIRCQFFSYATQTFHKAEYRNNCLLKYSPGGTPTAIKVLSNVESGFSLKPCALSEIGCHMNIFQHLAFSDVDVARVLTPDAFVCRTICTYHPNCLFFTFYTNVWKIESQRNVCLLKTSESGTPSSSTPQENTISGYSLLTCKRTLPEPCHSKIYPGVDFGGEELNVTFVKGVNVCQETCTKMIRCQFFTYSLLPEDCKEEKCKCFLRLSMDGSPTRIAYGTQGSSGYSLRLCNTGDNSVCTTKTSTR
Put plainly: Determination of the plasma kallikrein activity (fluorogenic peptide substrate, AMC cleavage). The settings on record: plasma kallikrein from Kordia 0.6 nM; substrate H-Pro-Phe-Arg-AMC 10 μM; 30 min at 22° C.; in some cases averages from multiple determinations. Type of experiment: biochemical. The gist of the method: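 Kallikrein cleavage of H-Pro-Phe-Arg-AMC was followed by AMC fluorescence (ex 360, em 460) after 15 min enzyme–compound preincubation. IC50 was derived versus DMSO controls over final concentrations of 50 μM to 0.00013 μM.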

T1 sequence (P03951 388-625 limits assumed): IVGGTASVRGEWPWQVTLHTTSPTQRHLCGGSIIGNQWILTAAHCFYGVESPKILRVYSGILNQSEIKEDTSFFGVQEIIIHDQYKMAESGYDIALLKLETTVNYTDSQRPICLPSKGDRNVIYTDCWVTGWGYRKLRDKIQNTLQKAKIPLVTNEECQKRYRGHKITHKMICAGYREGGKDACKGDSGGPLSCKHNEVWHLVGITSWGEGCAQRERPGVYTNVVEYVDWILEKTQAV
T1 sequence (P03951 19-387 partner limits assumed): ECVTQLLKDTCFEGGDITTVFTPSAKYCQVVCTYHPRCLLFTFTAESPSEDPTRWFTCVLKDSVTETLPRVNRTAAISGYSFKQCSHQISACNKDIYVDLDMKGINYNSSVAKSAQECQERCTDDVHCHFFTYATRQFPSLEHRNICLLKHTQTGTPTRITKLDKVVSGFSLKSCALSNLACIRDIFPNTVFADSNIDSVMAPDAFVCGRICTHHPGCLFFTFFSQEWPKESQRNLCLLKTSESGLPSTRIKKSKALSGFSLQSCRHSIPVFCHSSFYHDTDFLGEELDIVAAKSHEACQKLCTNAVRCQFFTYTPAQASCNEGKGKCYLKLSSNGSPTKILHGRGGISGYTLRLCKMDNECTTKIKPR

With `COc1cn([C@@H](CCOC(C)(C)C)C(=O)Nc2ccc3nc(C(=O)O)cn3c2)c(=O)cc1-c1cc(Cl)ccc1OCC(F)(F)F` (single isomer, unassigned) [Example 71, 6-{[4-tert-Butoxy-2-{4-[5-chloro-2-(2,2,2-trifluoroethoxy)phenyl]-5-methoxy-2-oxopyridin-1(2H)-yl}butanoyl]amino}imidazo[1,2-a]pyridine-2-carboxylic acid], the values for the IC50 on human factor XIa and against human plasma kallikrein were 0.93 nM and 10 nM, respectively.

As for `COc1cn(C(Cc2ccn(C)n2)C(=O)Nc2ccc(C(=O)O)cc2)c(=O)cc1-c1cc(Cl)ccc1OCC(F)(F)F` (single isomer, unassigned) [Example 43, 4-{[2-{4-[5-Chloro-2-(2,2,2-trifluoroethoxy)phenyl]-5-methoxy-2-oxopyridin-1(2H)-yl}-3-(1-methyl-1H-pyrazol-3-yl)propanoyl]amino}benzoic acid], the IC50 on human factor XIa amounted to 0.96 nM; against human plasma kallikrein it was 9.4 nM.

On to `COc1cn(C(C[C@H]2CCCCO2)C(=O)Nc2ccc(C(N)=O)c(F)c2)c(=O)cc1-c1cc(Cl)ccc1OCC(F)(F)F` (stereo partly drawn) [Example 23, 4-[(2-{4-[5-Chloro-2-(2,2,2-trifluoroethoxy)phenyl]-5-methoxy-2-oxopyridin-1(2H)-yl}-3-[(2R)-tetrahydro-2H-pyran-2-yl]propanoyl)amino]-2-fluorobenzamide], for which the figures for the IC50 at human factor XIa and on human plasma kallikrein were 34 nM and 340 nM, respectively.

In the case of `COc1cn(C(CCOC(F)(F)F)C(=O)Nc2ccc3nn(C)cc3c2)c(=O)cc1-c1cc(Cl)ccc1OCC(F)(F)F` (racemic) [Example 38, 2-{4-[5-Chloro-2-(2,2,2-trifluoroethoxy)phenyl]-5-methoxy-2-oxopyridin-1(2H)-yl}-N-(2-methyl-2H-indazol-5-yl)-4-(trifluoromethoxy)butanamide], the IC50 at human factor XIa was 13 nM; against human plasma kallikrein, 93 nM.

As to `COc1cc(NC(=O)C(CCOC(C)(C)C)n2cc(OC)c(-c3cc(Cl)ccc3OCC(F)(F)F)cc2=O)ccc1C(=O)O` (racemic) [Example 74, 4-{[4-tert-Butoxy-2-{4-[5-chloro-2-(2,2,2-trifluoroethoxy)phenyl]-5-methoxy-2-oxopyridin-1(2H)-yl}butanoyl]amino}-2-methoxybenzoic acid], the IC50 at human factor XIa was determined as 6.9 nM; on human plasma kallikrein, 210 nM.

For `COc1cn(C(C[C@H](C)OC)C(=O)Nc2ccc(C(N)=O)c(F)c2)c(=O)cc1-c1cc(Cl)ccc1OCC(F)(F)F` (mixture of isomers) [Example 40, 4-{[(4S)-2-{4-[5-Chloro-2-(2,2,2-trifluoroethoxy)phenyl]-5-methoxy-2-oxopyridin-1(2H)-yl}-4-methoxypentanoyl]amino}-2-fluorobenzamide], the IC50 against human factor XIa worked out at 19 nM; against human plasma kallikrein, 230 nM.

With `COc1cn(C(CCOC(C)C)C(=O)Nc2ccc3nn(C)cc3c2)c(=O)cc1-c1cc(Cl)ccc1OCC(F)(F)F` (racemic) [Example 39, 2-{4-[5-Chloro-2-(2,2,2-trifluoroethoxy)phenyl]-5-methoxy-2-oxopyridin-1(2H)-yl}-4-isopropoxy-N-(2-methyl-2H-indazol-5-yl)butanamide], the IC50 against human factor XIa worked out at 16 nM; at human plasma kallikrein, 56 nM.

`COc1cn(C(CCOC(C)(C)C)C(=O)Nc2ccc(C(N)=O)c(F)c2)c(=O)cc1-c1cc(Cl)ccc1OCC(F)F` (racemic) [Example 26, 4-[(4-tert-Butoxy-2-{4-[5-chloro-2-(2,2-difluoroethoxy)phenyl]-5-methoxy-2-oxopyridin-1(2H)-yl}butanoyl)amino]-2-fluorobenzamide]: the figures for the IC50 against human factor XIa and at human plasma kallikrein were 25 nM and 150 nM, respectively.

For the compound `COc1cn(C(C[C@@H]2CCCCO2)C(=O)Nc2ccc(C(=O)O)cc2)c(=O)cc1-c1cc(Cl)ccc1OCC(F)(F)F` (stereo partly drawn) [Example 49, 4-[(2-{4-[5-Chloro-2-(2,2,2-trifluoroethoxy)phenyl]-5-methoxy-2-oxopyridin-1(2H)-yl}-3-[(2S)-tetrahydro-2H-pyran-2-yl]propanoyl)amino]benzoic acid], the values for the IC50 against human factor XIa and against human plasma kallikrein were 0.9 nM and 33 nM, respectively.

As for `COc1cn(C(CCOC(C)(C)C)C(=O)Nc2ccc(C(N)=O)nc2)c(=O)cc1-c1cc(Cl)ccc1OCC(F)(F)F` (racemic) [Example 11, 5-[(4-tert-Butoxy-2-{4-[5-chloro-2-(2,2,2-trifluoroethoxy)phenyl]-5-methoxy-2-oxopyridin-1(2H)-yl}butanoyl)amino]pyridine-2-carboxamide], the figures for the IC50 against human factor XIa and against human plasma kallikrein were 18 nM and 87 nM, respectively.

For `CNC(=O)c1ccc(NC(=O)C(CCOC(C)(C)C)n2cc(OC)c(-c3cc(Cl)ccc3OCC(F)(F)F)cc2=O)cn1` (racemic) [Example 12, 5-[(4-tert-Butoxy-2-{4-[5-chloro-2-(2,2,2-trifluoroethoxy)phenyl]-5-methoxy-2-oxopyridin-1(2H)-yl}butanoyl)amino]-N-methylpyridine-2-carboxamide], the IC50 against human factor XIa turned out to be 12 nM; against human plasma kallikrein, 60 nM.

As for `COc1cn(C(C[C@@H]2CCCCO2)C(=O)Nc2ccc(C(=O)O)cc2)c(=O)cc1-c1cc(Cl)ccc1OCC(F)(F)F` (single isomer, unassigned) [Example 50], the results for the IC50 at human factor XIa and on human plasma kallikrein were 0.41 nM and 19 nM, respectively.

For the compound `COc1cn(C(CCOC(C)C)C(=O)Nc2ccc(C(N)=O)c(F)c2)c(=O)cc1-c1cc(Cl)ccc1OCC(F)(F)F` (racemic) [Example 41, 4-[(2-{4-[5-Chloro-2-(2,2,2-trifluoroethoxy)phenyl]-5-methoxy-2-oxopyridin-1(2H)-yl}-4-isopropoxybutanoyl)amino]-2-fluorobenzamide], the values for the IC50 against human factor XIa and on human plasma kallikrein were 25 nM and 130 nM, respectively.

Regarding `COc1cn(C(CC2COCCO2)C(=O)Nc2ccc3nn(C)cc3c2)c(=O)cc1-c1cc(Cl)ccc1OCC(F)F` (centres unmarked) [Example 33, 2-{4-[5-Chloro-2-(2,2-difluoroethoxy)phenyl]-5-methoxy-2-oxopyridin-1(2H)-yl}-3-(1,4-dioxan-2-yl)-N-(2-methyl-2H-indazol-5-yl)propanamide], the IC50 at human factor XIa is 5.8 nM; against human plasma kallikrein, 66 nM.

As for `COc1cn(C(C[C@H]2CCCCO2)C(=O)Nc2ccc3nn(C)cc3c2)c(=O)cc1-c1cc(Cl)ccc1OCC(F)(F)F` (stereo partly drawn) [Example 21, 2-{4-[5-Chloro-2-(2,2,2-trifluoroethoxy)phenyl]-5-methoxy-2-oxopyridin-1(2H)-yl}-N-(2-methyl-2H-indazol-5-yl)-3-[(2R)-tetrahydro-2H-pyran-2-yl]propanamide], the IC50 turned out to be 16 nM on human factor XIa and 150 nM on human plasma kallikrein.

In the case of `COc1cn(C(CCOC2(C)CCC2)C(=O)Nc2ccc(C(N)=O)c(F)c2)c(=O)cc1-c1cc(Cl)ccc1OCC(F)(F)F` (racemic) [Example 59, 4-[[2-[4-[5-Chloro-2-(2,2,2-trifluoroethoxy)phenyl]-5-methoxy-2-oxo-1-pyridyl]-4-(1-methylcyclobutoxy)butanoyl]amino]-2-fluorobenzamide], the IC50 against human factor XIa worked out at 14 nM; at human plasma kallikrein it was 110 nM.

For `COc1cn(C(CC2COCCO2)C(=O)Nc2ccc(C(N)=O)nc2)c(=O)cc1-c1cc(Cl)ccc1OCCF` (centres unmarked) [Example 45, 5-{[2-{4-[5-Chloro-2-(2-fluoroethoxy)phenyl]-5-methoxy-2-oxopyridin-1(2H)-yl}-3-(1,4-dioxan-2-yl)propanoyl]amino}pyridine-2-carboxamide], the IC50 at human factor XIa was 14 nM; against human plasma kallikrein, 280 nM.

Take `COc1cn(C(CCOC(C)(C)C)C(=O)Nc2ccc(C(=O)O)s2)c(=O)cc1-c1cc(Cl)ccc1OCC(F)(F)F` (racemic) [Example 75, 5-{[4-tert-Butoxy-2-{4-[5-chloro-2-(2,2,2-trifluoroethoxy)phenyl]-5-methoxy-2-oxopyridin-1(2H)-yl}butanoyl]amino}thiophene-2-carboxylic acid]: the IC50 was 2.5 nM against human factor XIa and 19 nM on human plasma kallikrein.

On to `COc1cn(C(C[C@H]2CCCCO2)C(=O)Nc2ccc(C(=O)O)cc2)c(=O)cc1-c1cc(Cl)ccc1OCC(F)(F)F` (stereo partly drawn) [Example 20, 4-[(2-{4-[5-Chloro-2-(2,2,2-trifluoroethoxy)phenyl]-5-methoxy-2-oxopyridin-1(2H)-yl}-3-[(2R)-tetrahydro-2H-pyran-2-yl]propanoyl)amino]benzoic acid], for which the results for the IC50 against human factor XIa and at human plasma kallikrein were 2.5 nM and 120 nM, respectively.

As to `COc1cn(C(CCOC2(C)CCC2)C(=O)Nc2ccc(C(=O)O)cc2)c(=O)cc1-c1cc(Cl)ccc1OCC(F)(F)F` (racemic) [Example 55, 4-[(2-{4-[5-Chloro-2-(2,2,2-trifluoroethoxy)phenyl]-5-methoxy-2-oxopyridin-1(2H)-yl}-4-[(1-methylcyclobutyl)oxy]butanoyl)amino]benzoic acid], the IC50 against human factor XIa stood at 1.8 nM; against human plasma kallikrein it was 32 nM.

Take `CNC(=O)c1ccc(NC(=O)C(C[C@H]2CCCCO2)n2cc(OC)c(-c3cc(Cl)ccc3OCC(F)(F)F)cc2=O)cn1` (stereo partly drawn) [Example 22, 5-[(2-{4-[5-Chloro-2-(2,2,2-trifluoroethoxy)phenyl]-5-methoxy-2-oxopyridin-1(2H)-yl}-3-[(2R)-tetrahydro-2H-pyran-2-yl]propanoyl)amino]-N-methylpyridine-2-carboxamide]: the results for the IC50 against human factor XIa and against human plasma kallikrein were 18 nM and 170 nM, respectively.

Turning to `COCCC(C(=O)Nc1ccc(C(=O)O)cc1)n1cc(OC)c(-c2cc(Cl)ccc2OCC(F)(F)F)cc1=O` (single isomer, unassigned) [Example 2, 4-[(2-{4-[5-Chloro-2-(2,2,2-trifluoroethoxy)phenyl]-5-methoxy-2-oxopyridin-1(2H)-yl}-4-methoxybutanoyl)amino]benzoic acid], the IC50 was 0.28 nM against human factor XIa and 15 nM against human plasma kallikrein.
